{
  "source": "ChEMBL document CHEMBL5528056",
  "about": "“BAY-9835: Discovery of the First Orally Bioavailable ADAMTS7 Inhibitor” (J Med Chem, 2024)",
  "key": {"[1]": {"biological_target": "Voltage-dependent L-type calcium channel subunit alpha-1C (Homo sapiens, UniProt Q13936)", "sequence (Q13936 whole entry)": "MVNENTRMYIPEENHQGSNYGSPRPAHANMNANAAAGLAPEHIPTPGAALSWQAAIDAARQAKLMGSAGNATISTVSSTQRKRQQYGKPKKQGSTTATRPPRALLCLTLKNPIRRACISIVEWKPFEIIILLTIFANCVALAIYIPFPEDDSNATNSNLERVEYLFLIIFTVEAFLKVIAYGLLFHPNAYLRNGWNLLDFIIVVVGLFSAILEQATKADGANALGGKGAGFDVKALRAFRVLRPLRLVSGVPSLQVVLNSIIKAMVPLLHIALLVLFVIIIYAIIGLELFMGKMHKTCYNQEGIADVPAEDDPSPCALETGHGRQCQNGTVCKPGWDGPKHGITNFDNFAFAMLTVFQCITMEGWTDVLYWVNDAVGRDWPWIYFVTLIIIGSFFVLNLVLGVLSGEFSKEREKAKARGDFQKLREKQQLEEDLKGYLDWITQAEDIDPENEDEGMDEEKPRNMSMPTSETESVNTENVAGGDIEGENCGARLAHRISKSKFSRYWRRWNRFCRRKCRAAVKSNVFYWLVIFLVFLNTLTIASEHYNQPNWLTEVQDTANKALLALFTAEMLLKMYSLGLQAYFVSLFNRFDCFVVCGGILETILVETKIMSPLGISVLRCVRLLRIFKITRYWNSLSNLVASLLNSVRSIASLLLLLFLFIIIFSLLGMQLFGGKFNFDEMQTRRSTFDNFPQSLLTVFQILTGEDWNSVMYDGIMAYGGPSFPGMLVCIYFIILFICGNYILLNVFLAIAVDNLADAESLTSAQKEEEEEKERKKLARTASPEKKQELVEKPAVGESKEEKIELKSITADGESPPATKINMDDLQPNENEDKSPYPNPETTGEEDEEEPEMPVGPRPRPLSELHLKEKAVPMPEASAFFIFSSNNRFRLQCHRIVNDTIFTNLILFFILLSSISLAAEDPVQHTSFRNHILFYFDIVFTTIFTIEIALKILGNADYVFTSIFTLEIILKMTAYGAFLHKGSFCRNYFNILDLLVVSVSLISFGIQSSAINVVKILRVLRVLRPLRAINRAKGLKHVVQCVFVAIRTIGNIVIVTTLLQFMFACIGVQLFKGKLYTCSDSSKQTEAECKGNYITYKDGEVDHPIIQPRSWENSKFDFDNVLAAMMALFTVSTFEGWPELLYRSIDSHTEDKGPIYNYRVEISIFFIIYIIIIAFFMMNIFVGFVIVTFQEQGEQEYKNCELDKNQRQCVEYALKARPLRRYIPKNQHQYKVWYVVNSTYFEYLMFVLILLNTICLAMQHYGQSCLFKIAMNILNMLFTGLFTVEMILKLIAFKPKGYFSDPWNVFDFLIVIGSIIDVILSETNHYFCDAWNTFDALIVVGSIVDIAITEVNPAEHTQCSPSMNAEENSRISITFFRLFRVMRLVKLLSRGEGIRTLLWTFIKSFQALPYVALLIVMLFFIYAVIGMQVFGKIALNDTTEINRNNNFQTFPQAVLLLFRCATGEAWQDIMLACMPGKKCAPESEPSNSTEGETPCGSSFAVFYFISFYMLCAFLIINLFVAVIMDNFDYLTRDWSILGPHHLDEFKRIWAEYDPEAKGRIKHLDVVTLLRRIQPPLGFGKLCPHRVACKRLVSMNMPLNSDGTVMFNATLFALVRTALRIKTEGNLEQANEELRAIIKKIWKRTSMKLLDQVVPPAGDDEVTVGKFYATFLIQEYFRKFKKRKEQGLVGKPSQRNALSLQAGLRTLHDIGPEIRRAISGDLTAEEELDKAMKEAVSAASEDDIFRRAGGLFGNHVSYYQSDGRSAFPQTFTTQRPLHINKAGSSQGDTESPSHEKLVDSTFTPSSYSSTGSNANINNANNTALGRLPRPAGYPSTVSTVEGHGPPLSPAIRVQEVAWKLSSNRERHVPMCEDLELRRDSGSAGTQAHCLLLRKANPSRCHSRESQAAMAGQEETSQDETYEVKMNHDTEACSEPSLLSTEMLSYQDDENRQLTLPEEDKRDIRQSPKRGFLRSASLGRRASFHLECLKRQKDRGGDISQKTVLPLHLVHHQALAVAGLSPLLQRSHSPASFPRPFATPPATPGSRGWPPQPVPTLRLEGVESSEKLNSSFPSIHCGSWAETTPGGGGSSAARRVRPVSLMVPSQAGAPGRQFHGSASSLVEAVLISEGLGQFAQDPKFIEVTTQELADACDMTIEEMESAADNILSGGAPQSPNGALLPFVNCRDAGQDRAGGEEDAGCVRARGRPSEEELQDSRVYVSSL", "assay": "Inhibition of hCaV1.2 upto 10 uM by voltage clamp method", "format": "toxicity"}, "[2]": {"assay": "Selectivity ratio of IC50 for ADAMTS4 (unknown origin) to IC50 for ADAMTS7 (unknown origin)"}, "[3]": {"assay": "Half life in Beagle dog at 0.3 mg/kg, iv measured for >24 hrs by HPLC-MS/MS analysis", "format": "ADME, organism-based, Canis lupus familiaris", "settings": "in vivo; call rule not given here"}, "[4]": {"assay": "Fraction unbound in rat plasma", "format": "ADME, cell-free"}, "[5]": {"assay": "Fraction unbound in dog plasma", "format": "ADME, cell-free, Canis lupus familiaris"}, "[6]": {"assay": "Half life in Wistar rat at 1 mg/kg, po measured for >24 hrs by HPLC-MS/MS analysis", "format": "ADME, organism-based", "settings": "in vivo"}, "[7]": {"assay": "Half life in Wistar rat at 0.3 mg/kg, iv measured for >24 hrs by HPLC-MS/MS analysis", "format": "ADME, organism-based", "settings": "in vivo"}, "[8]": {"assay": "Solubility of compound in FeSSIF measured after 24 hrs by HPLC analysis", "format": "ADME", "settings": "simulated gi fluid"}, "[9]": {"assay": "Clearance in Beagle dog at 0.3 mg/kg, iv measured for >24 hrs by HPLC-MS/MS analysis", "format": "ADME, organism-based, Canis lupus familiaris", "settings": "in vivo"}, "[10]": {"assay": "Genotoxicity in Salmonella typhimurium by Ames […] test", "format": "toxicity", "settings": "salmonella enterica subsp. enterica serovar typhimurium"}, "[11]": {"biological_target": "Voltage-gated inwardly rectifying potassium channel KCNH2 (Homo sapiens, UniProt Q12809)", "sequence (Q12809 whole entry)": "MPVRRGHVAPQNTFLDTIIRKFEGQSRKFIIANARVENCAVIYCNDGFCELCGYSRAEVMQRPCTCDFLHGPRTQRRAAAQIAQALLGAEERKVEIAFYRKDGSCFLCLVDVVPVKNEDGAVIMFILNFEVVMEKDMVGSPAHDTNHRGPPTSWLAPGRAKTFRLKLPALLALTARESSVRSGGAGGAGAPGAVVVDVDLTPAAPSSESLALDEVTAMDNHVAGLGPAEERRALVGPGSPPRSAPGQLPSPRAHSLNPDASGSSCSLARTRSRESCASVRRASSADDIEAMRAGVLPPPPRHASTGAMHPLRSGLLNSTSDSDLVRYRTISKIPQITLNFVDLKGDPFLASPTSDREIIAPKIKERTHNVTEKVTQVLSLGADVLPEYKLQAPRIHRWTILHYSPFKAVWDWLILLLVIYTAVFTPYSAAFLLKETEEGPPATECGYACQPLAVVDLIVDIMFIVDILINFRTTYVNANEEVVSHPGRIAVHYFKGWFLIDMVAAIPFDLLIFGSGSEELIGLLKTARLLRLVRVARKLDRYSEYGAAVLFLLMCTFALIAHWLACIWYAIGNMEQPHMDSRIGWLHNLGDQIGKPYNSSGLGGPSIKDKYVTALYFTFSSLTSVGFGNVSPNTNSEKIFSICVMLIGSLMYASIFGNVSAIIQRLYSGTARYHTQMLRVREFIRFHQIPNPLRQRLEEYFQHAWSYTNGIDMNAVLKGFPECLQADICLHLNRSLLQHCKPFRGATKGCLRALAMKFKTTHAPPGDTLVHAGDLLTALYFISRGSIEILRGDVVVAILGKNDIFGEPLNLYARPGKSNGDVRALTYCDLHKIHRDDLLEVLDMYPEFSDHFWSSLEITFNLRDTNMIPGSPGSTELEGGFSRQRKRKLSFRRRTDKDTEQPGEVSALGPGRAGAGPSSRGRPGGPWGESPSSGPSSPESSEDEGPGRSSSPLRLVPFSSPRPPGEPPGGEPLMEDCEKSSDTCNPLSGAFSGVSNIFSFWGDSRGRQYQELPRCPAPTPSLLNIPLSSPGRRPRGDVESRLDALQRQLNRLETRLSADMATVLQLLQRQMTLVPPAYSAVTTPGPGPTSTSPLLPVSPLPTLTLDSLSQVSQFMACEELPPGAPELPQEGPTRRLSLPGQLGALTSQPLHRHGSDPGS", "assay": "Inhibition of hERG upto 10 uM by whole-cell voltage clamp method", "format": "toxicity"}, "[12]": {"assay": "Clearance in iv-dosed Wistar rat measured after 24 hrs by HPLC-MS/MS analysis", "format": "ADME", "settings": "in vivo"}, "[13]": {"assay": "Clearance in Wistar rat at 0.3 mg/kg, iv measured for >24 hrs by HPLC-MS/MS analysis", "format": "ADME, organism-based", "settings": "in vivo"}, "[14]": {"assay": "Selectivity ratio of IC50 for MMP2 (unknown origin) to IC50 for ADAMTS7 (unknown origin)"}, "[15]": {"assay": "Fraction unbound in mouse plasma", "format": "ADME, cell-free"}, "[16]": {"assay": "Half life in C57bl6 mouse at 0.3 mg/kg, iv measured for >24 hrs by HPLC-MS/MS analysis", "format": "ADME, organism-based", "settings": "in vivo"}, "[17]": {"assay": "Dose normalized AUC in Beagle dog at 1 mg/kg, po measured for >24 hrs by HPLC-MS/MS analysis", "format": "ADME, organism-based, Canis lupus familiaris", "settings": "in vivo"}, "[18]": {"assay": "Stability in human plasma measured for 4 hrs by HPLC analysis", "format": "ADME, cell-free"}, "[19]": {"assay": "Volume of distribution at steady state in C57bl6 mouse at 0.3 mg/kg, iv measured for >24 hrs by HPLC-MS/MS analysis", "format": "ADME, organism-based", "settings": "in vivo"}, "[20]": {"assay": "Selectivity ratio of IC50 for ADAMTS12 (unknown origin) to IC50 for ADAMTS7 (unknown origin)"}, "Cytochrome P450 1A2": {"biological_target": "T1, Cytochrome P450 1A2 (Homo sapiens, UniProt P05177)", "T1 sequence (P05177 whole entry)": "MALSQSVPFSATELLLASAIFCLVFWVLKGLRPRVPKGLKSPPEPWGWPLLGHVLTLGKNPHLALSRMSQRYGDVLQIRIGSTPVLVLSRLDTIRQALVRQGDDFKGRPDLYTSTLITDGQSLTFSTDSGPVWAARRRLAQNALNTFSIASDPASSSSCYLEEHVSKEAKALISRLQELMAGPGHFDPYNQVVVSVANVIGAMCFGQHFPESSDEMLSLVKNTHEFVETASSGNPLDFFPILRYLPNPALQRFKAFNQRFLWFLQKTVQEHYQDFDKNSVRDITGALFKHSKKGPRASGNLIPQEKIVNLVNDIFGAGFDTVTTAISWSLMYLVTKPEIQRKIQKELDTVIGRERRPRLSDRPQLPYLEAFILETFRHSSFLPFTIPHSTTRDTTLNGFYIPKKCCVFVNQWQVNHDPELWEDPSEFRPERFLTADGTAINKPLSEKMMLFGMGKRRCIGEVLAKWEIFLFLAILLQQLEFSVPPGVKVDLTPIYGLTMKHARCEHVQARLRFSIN", "assay": "Inhibition of CYP1A2 in human liver microsomes using phenacetin as substrate upto 20 uM by LC-MS/MS analysis", "format": "ADME, Microsome"}, "[21]": {"assay": "Tmax in C57bl6 mouse at 1 mg/kg, po measured for >24 hrs by HPLC-MS/MS analysis", "format": "ADME, organism-based", "settings": "in vivo"}, "Cytochrome P450 3A4": {"biological_target": "Cytochrome P450 3A4 (Homo sapiens, UniProt P08684)", "assay": "Inhibition of CYP3A4 in human liver microsomes using midazolam as substrate upto 20 uM by LC-MS/MS analysis", "format": "ADME, Microsome"}, "[22]": {"assay": "Dose normalized AUC in Wistar rat at 0.3 mg/kg, iv measured for >24 hrs by HPLC-MS/MS analysis", "format": "ADME, organism-based", "settings": "in vivo"}, "[23]": {"assay": "Dose normalized AUC in Wistar rat at 1 mg/kg, po measured for >24 hrs by HPLC-MS/MS analysis", "format": "ADME, organism-based", "settings": "in vivo"}, "[24]": {"biological_target": "A disintegrin and metalloproteinase with thrombospondin motifs 7 (Rattus norvegicus, UniProt Q1EHB3)", "sequence (Q1EHB3 whole entry)": "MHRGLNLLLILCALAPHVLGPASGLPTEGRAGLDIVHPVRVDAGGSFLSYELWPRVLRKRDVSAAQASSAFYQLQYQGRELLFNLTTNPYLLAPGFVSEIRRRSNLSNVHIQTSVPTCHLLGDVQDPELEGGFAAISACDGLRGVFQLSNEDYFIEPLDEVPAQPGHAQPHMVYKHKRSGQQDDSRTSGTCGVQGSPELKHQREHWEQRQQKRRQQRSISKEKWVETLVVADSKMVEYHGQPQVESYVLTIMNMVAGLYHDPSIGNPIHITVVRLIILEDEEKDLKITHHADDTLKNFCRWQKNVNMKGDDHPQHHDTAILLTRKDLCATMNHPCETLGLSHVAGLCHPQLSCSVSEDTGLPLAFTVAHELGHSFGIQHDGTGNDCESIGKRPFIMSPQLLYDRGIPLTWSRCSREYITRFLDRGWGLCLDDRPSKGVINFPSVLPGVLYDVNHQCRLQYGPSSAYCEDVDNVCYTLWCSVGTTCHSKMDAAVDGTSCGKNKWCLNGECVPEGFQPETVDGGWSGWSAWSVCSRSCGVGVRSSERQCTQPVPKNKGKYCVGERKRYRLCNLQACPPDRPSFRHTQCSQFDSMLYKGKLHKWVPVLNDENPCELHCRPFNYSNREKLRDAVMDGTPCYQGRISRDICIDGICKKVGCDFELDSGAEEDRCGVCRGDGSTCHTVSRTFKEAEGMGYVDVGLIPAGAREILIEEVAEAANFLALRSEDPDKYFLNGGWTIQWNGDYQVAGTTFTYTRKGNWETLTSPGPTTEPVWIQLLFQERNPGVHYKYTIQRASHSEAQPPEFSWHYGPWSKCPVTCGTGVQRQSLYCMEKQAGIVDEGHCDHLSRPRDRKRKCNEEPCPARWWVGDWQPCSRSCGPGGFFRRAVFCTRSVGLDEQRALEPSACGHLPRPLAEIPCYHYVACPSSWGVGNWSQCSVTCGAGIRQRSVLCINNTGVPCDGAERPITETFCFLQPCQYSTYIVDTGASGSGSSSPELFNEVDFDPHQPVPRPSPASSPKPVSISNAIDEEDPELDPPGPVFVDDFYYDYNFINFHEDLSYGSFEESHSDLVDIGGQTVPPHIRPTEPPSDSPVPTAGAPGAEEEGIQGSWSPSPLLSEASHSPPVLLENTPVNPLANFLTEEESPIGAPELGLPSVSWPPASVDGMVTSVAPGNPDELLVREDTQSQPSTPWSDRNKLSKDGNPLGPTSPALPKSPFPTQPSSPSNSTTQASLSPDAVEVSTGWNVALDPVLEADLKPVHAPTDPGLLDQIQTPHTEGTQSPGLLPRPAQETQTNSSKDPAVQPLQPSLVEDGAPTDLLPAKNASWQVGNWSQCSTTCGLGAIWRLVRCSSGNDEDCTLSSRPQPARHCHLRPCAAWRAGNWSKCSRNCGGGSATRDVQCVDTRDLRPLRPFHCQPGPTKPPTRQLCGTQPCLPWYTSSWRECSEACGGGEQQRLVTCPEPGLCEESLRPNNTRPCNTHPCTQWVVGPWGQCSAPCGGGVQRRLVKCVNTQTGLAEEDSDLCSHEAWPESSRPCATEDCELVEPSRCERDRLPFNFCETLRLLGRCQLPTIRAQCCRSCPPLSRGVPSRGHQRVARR", "assay": "Inhibition of recombinant rat ADAMTS7 using HiLyteFluor-488 DELSSMVLELRGLRT-K(QXL520)-E-NH2 as substrate incubated for 120 mins by FRET assay"}, "[25]": {"assay": "Selectivity ratio of IC50 for ADAM17 (unknown origin) to IC50 for ADAMTS7 (unknown origin)"}, "[26]": {"biological_target": "A disintegrin and metalloproteinase with thrombospondin motifs 7 (Mus musculus, UniProt Q68SA9)", "assay": "Inhibition of recombinant mouse ADAMTS7 using HiLyteFluor-488 DELSSMVLELRGLRT-K(QXL520)-E-NH2 as substrate incubated for 120 mins by FRET assay"}, "[27]": {"assay": "Clearance in C57bl6 mouse at 0.3 mg/kg, iv measured for >24 hrs by HPLC-MS/MS analysis", "format": "ADME, organism-based", "settings": "in vivo"}, "[28]": {"assay": "Selectivity ratio of IC50 for MMP15 (unknown origin) to IC50 for ADAMTS7 (unknown origin)"}, "[29]": {"biological_target": "Sodium channel protein type 5 subunit alpha (Homo sapiens, UniProt Q14524)", "assay": "Inhibition of hNaV1.5 upto 10 uM by voltage clamp method", "format": "toxicity"}, "[30]": {"assay": "Selectivity ratio of IC50 for C-terminal 10His-tagged recombinant human MMP-14 (21 to 284 residues) expressed in Escherichia coli using McaKPLGL-Dpa-AR-NH2 as substrate to IC50 for ADAMTS7 (unknown origin)"}},
  "data": [
    {"smiles": "Cn1nccc1[C@]1(CNC(=O)c2ccc(F)c(F)c2-c2ccc(C(F)(F)F)cc2)NC(=O)NC1=O", "values": [
      {"measurement": "inhibition (INH)", "setting": "[1]", "result": "Not Active"},
      {"measurement": "Ratio IC50", "setting": "[2]", "result": 1120},
      {"measurement": "t1/2", "setting": "[3]", "result": 22, "unit": "h"},
      {"measurement": "Fu", "setting": "[4]", "result": 5, "unit": "%"},
      {"measurement": "Fu", "setting": "[5]", "result": 5, "unit": "%"},
      {"measurement": "t1/2", "setting": "[6]", "result": 3.7, "unit": "h"},
      {"measurement": "t1/2", "setting": "[7]", "result": 3.6, "unit": "h"},
      {"measurement": "solubility", "setting": "[8]", "result": 513, "unit": "µg/mL"},
      {"measurement": "CL", "setting": "[9]", "result": 0.33, "unit": "mL/min/kg"},
      {"measurement": "Activity", "setting": "[10]", "result": "Non-Toxic"},
      {"measurement": "inhibition (INH)", "setting": "[11]", "result": "Not Active"},
      {"measurement": "CL", "setting": "[12]", "result": 10, "unit": "mL/min/kg"},
      {"measurement": "CL", "setting": "[13]", "result": 9.17, "unit": "mL/min/kg"},
      {"measurement": "Ratio IC50", "setting": "[14]", "result": 17300},
      {"measurement": "Fu", "setting": "[15]", "result": 11, "unit": "%"},
      {"measurement": "t1/2", "setting": "[16]", "result": 2.1, "unit": "h"},
      {"measurement": "AUC/dose", "setting": "[17]", "result": 68, "unit": "kg·h/L"},
      {"measurement": "Stability", "setting": "[18]", "result": "Stable"},
      {"measurement": "Vdss", "setting": "[19]", "result": 1.6, "unit": "L/kg"},
      {"measurement": "Ratio IC50", "setting": "[20]", "result": 5},
      {"measurement": "inhibition (INH)", "setting": "Cytochrome P450 1A2", "result": "Not Active"},
      {"measurement": "Tmax", "setting": "[21]", "result": 1, "unit": "h"},
      {"measurement": "inhibition (INH)", "setting": "Cytochrome P450 3A4", "result": "Not Active"},
      {"measurement": "AUC/dose", "setting": "[22]", "result": 3.1, "unit": "kg·h/L"},
      {"measurement": "AUC/dose", "setting": "[23]", "result": 3, "unit": "kg·h/L"},
      {"measurement": "IC50", "setting": "[24]", "result": 27, "unit": "nM"},
      {"measurement": "Ratio IC50", "setting": "[25]", "result": 962},
      {"measurement": "IC50", "setting": "[26]", "result": 8, "unit": "nM"},
      {"measurement": "CL", "setting": "[27]", "result": 18.3, "unit": "mL/min/kg"},
      {"measurement": "Ratio IC50", "setting": "[28]", "result": 13100},
      {"measurement": "inhibition (INH)", "setting": "[29]", "result": "Not Active"},
      {"measurement": "Ratio IC50", "setting": "[30]", "result": "> 16700"}
    ]}
  ]
}
